A short description of series [1]: Body weight in SU-DHL-4 subcutaneous transplant model. Type of series: in vivo. As to conditions: 3 mg/kg intravenously 5 times a week for 2 weeks, male SCID mouse; for Body weight: mean of n=5. As for the experimental part:
(§1) 1×10^7 cells of DLBCL strain SU-DHL-4 (Code No. ACC 495, Deutsche Sammlung von Mikroorganismen and Zellkulturen GmbH) suspended in a 1:1 mixed solution of PBS and matrigel (CORNING Code No. 354234) were transplanted subcutaneously to the ventral side of a male SCID mouse. Eighteen days after the transplantation, the body weight and the tumor diameter were measured, the tumor volume was calculated by the following formula, and the mice were divided into two groups (n=5) so that the average tumor volume of each group was equal. E-workbook software (ID Business Solusions) was used for grouping and measurement. [Tumor volume (mm^3)]=[Tumor long diameter (mm)]×[Tumor short diameter (mm)]^2×0.5
The test was conducted in two groups, a vehicle administration group and a compound 1a administration group (compound administration group). To the compound 1a administration group, a solution of compound 1a dissolved in 30% DMSO/3% Tween 80/physiological saline so as to give a final concentration of 0.6 mg/mL was administered intravenously (tail vein) at 5 mL/kg (3 mg/kg) 5 times a week for 2 weeks. To the vehicle administration group, 30% DMSO/3% Tween 80/physiological saline was administered intravenously (tail vein) at 5 mL/kg on the same schedule as the compound 1a administration group. After the start of the test, body weight and tumor diameter were measured twice a week. The tumor volume on each measurement day was calculated by the above formula. The tumor growth rate (hereinafter referred to as V/V0) was calculated by dividing the tumor volume V on each measurement day by the tumor volume V0 on the test start day (Day 0). The T/C was calculated by dividing the average value (T) of V/V0 of each group by the average value (C) of the vehicle administration group.

The subject of another series is SU-DHL-4 cells. Briefly: Inhibitory effect on cell viability (Cell Counting Kit-8). It counts as cell-based. As to conditions: Homo sapiens, 72 hours culture with test compound, concentration showing 90% inhibition rate of cell viability. Put shortly:
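IC90 corresponds to 90% loss of viability, measured as CCK-8 absorbance at 450 nm (2-3 h colour development). Compounds in 9 dilutions (0.1% DMSO) were applied for 72 h at 37° C to SU-DHL-4 lymphoma cells seeded at 2000/well in RPMI1640/10% FBS after 18-25 h preculture.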
For orientation: Formazan colour is commonly taken as a measure of viable cells.

The subject of series [2] is DLBCL strain SU-DHL-4 subcutaneously transplanted tumor. As to the kind of experiment: Antitumor effect on subcutaneous transplant model in SCID mouse. It counts as in vivo. As to conditions: 3 mg/kg intravenously 5 times a week for 2 weeks; male SCID mouse; versus vehicle administration group. Here is the method: Antitumor Effect on Subcutaneous Transplant Model in SCID Mouse DLBCL Strain SU-DHL-4
as §1, with “[Tumor volume (mm^3)]=[Tumor long diameter (mm)]×[Tumor short diameter (mm)]^2×0.5” left out
The test was conducted in two groups, a vehicle administration group and a compound 1a administration group (compound administration group). […] After the start of the test, body weight and tumor diameter were measured twice a week. The tumor volume on each measurement day was calculated by the above formula. The tumor growth rate (hereinafter referred to as V/V0) was calculated by dividing the tumor volume V on each measurement day by the tumor volume V0 on the test start day (Day 0). The T/C was calculated by dividing the average value (T) of V/V0 of each group by the average value (C) of the vehicle administration group.

Series [3] deals with MYC mRNA expression in SU-DHL-4 cells. As to the kind of experiment: Suppressive effect on MYC mRNA expression (qRT-PCR). It counts as cell-based. As to conditions: test compound 100 nmol/L, 6 hours. As for the experimental part: Suppressive Effect on MYC mRNA Expression
SU-DHL-4 cells were cultured at 37° C. using a carbon dioxide gas incubator (95% air, 5% CO2) in RPMI1640 medium in which FBS in an amount to give a final concentration of 10 vol % and PS in an amount to give a final concentration of 1 vol % were added. The cells were passaged twice a week at a volume of 20-40 mL so as to maintain a cell concentration of 1×10^6 cells/mL or less.
The cultured SU-DHL-4 cells were seeded at 6×10^5 cells/well in a transparent 6-well plate (Code No. 140675, Thermo Fisher Scientific). After seeding, the cells were precultured at 37° C. in a carbon dioxide gas incubator for 18 to 25 hours. Next, a 0.1 mmol/L DMSO solution of the test compound was prepared, diluted so that the concentration will be 200 times the final concentration in the RPMI1640 medium containing the above FBS and PS, and 1/200 volume of the diluted solution was added to each well. At this time, the final concentration of DMSO was adjusted to be 0.1 vol %. After adding the test compound, the cells were cultured at 37° C. in a carbon dioxide gas incubator for 6 hours.
Then, the cells were collected by centrifugation and used for extraction of mRNA. mRNA extraction from cells was performed using Maxwell® 16 LEV simplyRNA Purification Kits (Code No. AS1270, Promega). The mRNA recovery protocol was performed according to the manufacturer's recommended protocol attached to the kit.
0.001 mg of the recovered mRNA was converted to cDNA by SuperScript IV VILO Master Mix with ezDNase Enzyme (Code No. 11766050, Thermo Fisher Scientific). The cDNA conversion was performed, according to the manufacturer's recommended protocol attached to the kit, in 0.020 mL of the reaction solution, and GeneAmp® PCR System 9700 (Applied Biosystems) was used. The cDNA-converted sample was diluted 10-fold by adding 0.180 mL of RNase Free Water (Code No. 10977-023, Thermo Fisher Scientific) and used for quantitative real-time polymerase chain reaction (qRT-PCR). For the calibration curve of qRT-PCR, 0.08 mL of RNase Free Water was added to a cDNA sample using DMSO as a test compound for 5-fold dilution. Further, two 5-fold dilutions were prepared stepwise, and these three samples were used as the calibration curve samples.
The following reagents were used for qRT-PCR: TaqMan Gene Expression Assays, Inventoried (Primer probe: Code No. 4331182, Thermo Fisher Scientific, Assay ID: (i) MYC: Hs00153408_m1, (ii) ACTB: Hs01060665_g1, (iii) GAPDH: Hs04420697_g1, (iv) HPRT1: Hs02800695_m1); 2X TaqManR Fast Universal PCR Master Mix, no AmpEraseR UNG (Master Mix: Code No. 4367846, Thermo Fisher Scientific).
Primer probe (0.001 mL), Master Mix (0.010 mL), water (0.004 mL) and the diluted cDNA sample (0.005 mL) were mixed, and qRT-PCR analysis was performed. For qRT-PCR analysis, QuantStudio 7 Flex (Thermo Fisher Scientific) or 7500 Fast Real-Time PCR (Applied Biosystems) was used to measure in Fast mode and analyze. The expression level of the MYC gene was determined by quantifying ACTB, GAPDH, and HPRT1 as housekeeping genes and correcting by the following formula to calculate the suppression rate of (%) of MYC mRNA expression when the test compound was allowed to act at a concentration of 100 nmol/L. Corrected MYC expression=A/B • A: MYC expression level • B: Geometric mean of expression levels of ACTB, GAPDH and HPRT1
Using the corrected values, the suppression rate of MYC expression for the wells to which […] was calculated by the following formula. Suppression rate of MYC expression (%)=100−C/D×100 • C: Corrected MYC expression level in a well containing test compound • D: Corrected MYC expression level in a well to which test compound was not added
In general terms: Real-time PCR tracks product formation cycle by cycle.

Here are results for 4 compounds from patent US12054494B2, “Compound with anticancer activity” (KYOWA KIRIN CO., LTD., priority 2018, dated 2024).

By IC90 is commonly meant the point of the concentration-response curve where the effect stands at 90%. Lower therefore signals an effect from little substance. Take `CCC(=O)N1c2ccccc2[C@H](Nc2ccc(C(=O)NCCCNC(=O)c3ccc(N[C@@H]4C[C@H](C)N(C(=O)CC)c5ccccc54)cc3)cc2)C[C@@H]1C` (single isomer, unassigned) [Compound 1a, N,N′-(Propane-1,3-diyl)bis(4-{[(2S*,4R*)-2-methyl-1-propionyl-1,2,3,4-tetrahydroquinolin-4-yl]amino}benzamide)]: in series [1], the “Weight loss (in words)” value is “no weight loss was observed”. For the same compound, the Body weight came to 24.56 g in series [1] (Day 0); 25.36 g in series [1] (Day 3); 25.44 g in series [1] (Day 7); 25.14 g in series [1] (Day 10); 25.74 g in series [1] (Day 14); 26.23 g in series [1] (Day 18). In the series with SU-DHL-4 cells, this compound showed an IC90 of 5.21 nM. In series [2], the “Antitumor effect on SU-DHL-4 subcutaneously transplanted tumor (in words)” value is on record as “strong antitumor effect”.

As for `CCC(=O)N1c2ccccc2[C@H](Nc2ccc(C(=O)NCCCNC(=O)c3ccc(C4=N[C@@H](CC(=O)OCCCOC)c5nnc(C)n5-c5sc(C)c(C)c54)cc3)cc2)C[C@@H]1C` [Compound 13h, 3-Methoxypropyl 2-((S)-2,3,9-trimethyl-4-(4-((3-(4-(((2S,4R)-2-methyl-1-propionyl-1,2,3,4-tetrahydroquinolin-4-yl)amino)benzamide)propyl)carbamoyl)phenyl)-6H-thieno[3,2-f][1,2,4]triazolo[4,3-a][1,4]diazepin-6-yl)acetate], in series [3], the “Suppression rate of MYC mRNA expression” value was determined as 97.4%.

For the compound `CCC(=O)N1c2ccccc2[C@H](Nc2ccc(NC(=O)CCCC(=O)Nc3ccc(Cn4c(C(=O)OCCN(C)C)cc5c4CCCC5=O)cc3)cc2)C[C@@H]1C` [Compound 15a, 2-(Dimethylamino)ethyl 1-(4-(5-((4-(((2S,4R)-2-methyl-1-propionyl-1,2,3,4-tetrahydroquinolin-4-yl)amino)phenyl)amino)-5-oxopentanamide)benzyl)-4-oxo-4,5,6,7-tetrahydro-1H-indole-2-carboxylate], the “Suppression rate of MYC mRNA expression” value in series [3] is listed as 97.6%.

`Cc1sc2c(c1C)C(c1ccc(Cl)cc1)=N[C@@H](CC(=O)NCCOCCOCCOCCOCCOCCOCCOCCNC(=O)C[C@@H]1N=C(c3ccc(Cl)cc3)c3c(sc(C)c3C)-n3c(C)nnc31)c1nnc(C)n1-2` [compound 2, reference compound]: the “Suppression rate of MYC mRNA expression” value in series [3] was 57.7%.
